US8530470B2, “Chromenone derivatives” (Astrazeneca AB, priority 2011, dated 2013)
Where two headings read alike, the source gives them in different places.

Assays:
PI3Kβ = PI3Kβ (Homo sapiens, UniProt P42338); test: In vitro enzyme inhibition assay (Kinase Glo), PI3Kβ; format: biochemical; conditions: Test (a)
Protocol: (§1) (a) In Vitro Enzyme Inhibition Assay
(§2) The inhibition of PI3Kβ, PI3Kα, PI3Kγ and PI3Kδ was evaluated in a Kinase Glo based enzyme activity assay using human recombinant enzymes. The assay measures depletion of ATP after incubation with enzyme, PIP2 and ATP plus compound. ATP at the end of the reaction is detected by addition of Kinase Glo reagent, in this the Ultra Glo™ luciferase (Promega) uses the ATP as a substrate to catalyze the mono-oxygenation of luciferin and the generation of light. A direct relationship exists between the luminescence measured with the Kinase-Glo Plus Reagent and the amount of ATP remaining in a completed kinase reaction and luminescence is inversely related to kinase activity. Twelve different compound concentrations were tested and raw data from the inhibition of PI3Kβ, PI3Kα, PI3Kγ and PI3Kδ was plotted versus inhibitor concentration.
(§3) Compounds in 100% DMSO were added to assay plates by acoustic dispensing. PI3β was added in a Tris buffer (50 mM Tris pH7.4, 0.05% CHAPS, 2.1 mM DTT, and 10 mM MgCl2) and allowed to preincubate with compound for 20 min prior to addition of substrate solution containing PIP2 and ATP. The enzyme reaction was stopped after 80 min by the addition of Kinase Glo detection solution. […] The final concentration of DMSO, ATP and PIP2 in the assay were, 1%, 8 μM, and 80 μM respectively.
(§4) IC50 values were calculated using a log curve fitting to a non-linear regression package, fitting raw data to inhibitor concentration.

PI3Kδ = PI3Kδ (Homo sapiens, UniProt O00329); test: In vitro enzyme inhibition assay (Kinase Glo), PI3Kδ; format: biochemical; conditions: Test (a)
PI3Kδ, sequence (O00329 whole entry): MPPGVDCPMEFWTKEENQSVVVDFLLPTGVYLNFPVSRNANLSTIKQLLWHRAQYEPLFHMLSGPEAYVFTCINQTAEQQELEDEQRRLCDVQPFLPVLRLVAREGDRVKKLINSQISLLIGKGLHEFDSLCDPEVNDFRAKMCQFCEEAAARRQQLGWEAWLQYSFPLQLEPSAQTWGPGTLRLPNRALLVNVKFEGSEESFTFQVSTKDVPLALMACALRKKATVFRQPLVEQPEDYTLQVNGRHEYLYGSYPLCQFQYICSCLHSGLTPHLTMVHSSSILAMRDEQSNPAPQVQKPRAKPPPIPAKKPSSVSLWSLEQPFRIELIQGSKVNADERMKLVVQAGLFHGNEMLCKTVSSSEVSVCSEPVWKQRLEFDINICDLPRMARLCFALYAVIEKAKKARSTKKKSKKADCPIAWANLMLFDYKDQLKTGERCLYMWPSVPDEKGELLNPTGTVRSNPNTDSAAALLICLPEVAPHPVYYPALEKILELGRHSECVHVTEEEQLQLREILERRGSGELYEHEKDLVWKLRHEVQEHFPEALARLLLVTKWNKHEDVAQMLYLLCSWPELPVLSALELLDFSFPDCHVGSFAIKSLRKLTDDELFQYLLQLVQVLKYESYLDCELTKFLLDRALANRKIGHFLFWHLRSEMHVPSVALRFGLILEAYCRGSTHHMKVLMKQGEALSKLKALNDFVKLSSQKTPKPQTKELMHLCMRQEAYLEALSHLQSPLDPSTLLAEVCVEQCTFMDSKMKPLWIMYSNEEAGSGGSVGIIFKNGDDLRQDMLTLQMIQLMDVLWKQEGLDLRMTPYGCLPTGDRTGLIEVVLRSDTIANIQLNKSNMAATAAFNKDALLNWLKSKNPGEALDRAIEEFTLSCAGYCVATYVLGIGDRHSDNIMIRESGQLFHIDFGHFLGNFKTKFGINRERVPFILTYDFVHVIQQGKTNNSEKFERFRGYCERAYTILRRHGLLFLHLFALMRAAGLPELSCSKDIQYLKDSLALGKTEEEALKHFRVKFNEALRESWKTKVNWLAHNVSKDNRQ
PI3Kδ, sequence (P27986 whole entry partner): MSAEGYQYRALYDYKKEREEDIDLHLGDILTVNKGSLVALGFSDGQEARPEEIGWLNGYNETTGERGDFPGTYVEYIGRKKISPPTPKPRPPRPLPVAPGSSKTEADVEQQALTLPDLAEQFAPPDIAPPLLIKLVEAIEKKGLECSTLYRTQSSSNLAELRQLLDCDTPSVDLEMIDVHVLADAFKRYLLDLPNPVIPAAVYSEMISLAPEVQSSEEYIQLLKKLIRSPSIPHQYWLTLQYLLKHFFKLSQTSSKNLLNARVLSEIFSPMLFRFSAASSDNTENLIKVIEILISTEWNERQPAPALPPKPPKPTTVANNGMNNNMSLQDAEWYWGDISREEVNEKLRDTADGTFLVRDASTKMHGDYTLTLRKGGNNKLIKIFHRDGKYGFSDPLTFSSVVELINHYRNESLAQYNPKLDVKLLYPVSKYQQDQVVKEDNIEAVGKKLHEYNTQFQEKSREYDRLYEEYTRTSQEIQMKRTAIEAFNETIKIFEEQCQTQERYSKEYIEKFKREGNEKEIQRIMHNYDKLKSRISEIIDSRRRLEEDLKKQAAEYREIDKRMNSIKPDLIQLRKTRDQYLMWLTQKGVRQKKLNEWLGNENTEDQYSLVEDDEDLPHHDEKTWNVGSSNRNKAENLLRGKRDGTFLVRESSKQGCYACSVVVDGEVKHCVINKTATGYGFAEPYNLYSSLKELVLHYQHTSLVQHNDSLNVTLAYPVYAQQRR
Protocol: as §1, §2, §3, §4

[1] = system: phospho AKT (ser473) in MDA-MB-468 cells; test: Detection of phospho AKT (ser473) in MDA-MB-468 cells; format: cell-based; conditions: Homo sapiens, Test (b), 2 hours incubation, approximate value, read-out: IC50 versus cellular phospho AKT (ser473) in MDA-MB-468 cells
Protocol: (b) Protocol for Detection of Phospho AKT (ser473) in MDA-MB-468 Cells
MDA-MB-468 cells (human breast adenocarcinoma ATCC HTB 132) are seeded into Greiner 384 well black flat-bottomed plates by automated cell culture robot (Selec T). Cells can also be maintained manually and seeded into plates using multidrop or Wellmate. Cells seeded at 1500 cell/well in 40 μl of DMEN containing 10% FCS and 1% glutamine. Cell plates are incubated for 18 hours in a 37° C. incubator.
Compounds are dosed onto cells using an Echo acoustic dispenser, which dispenses nl quantities of compound or DMSO. Compounds are dosed in a 12 point concentration range from 30 μM top dose, 28 compounds are dosed on one plate. There are 17 DMSO only positive control wells per plate, and 16 negative control well which have been dosed with a concentration of reference compound that will knockout the pAKT signal.
Plates are incubated at 37° C. for 2 hours, cells are the fixed by the addition of 10 μl of a 3.7% Formaldehyde solution in a fume cupboard using a Wellmate.
After 30 min to allow for fixation, the fixative and media are removed and the plates washed with Proclin PBS/A using Tecan PW384 plate washer in a fume cupboard. Wells are blocked and permeabilised with the addition of 40 μl of PBS containing 0.5% Tween20 and 1% marvel using a Wellmate and incubated for 60 min at room temperature.
Permeabilisation and blocking buffer removed using Tecan PW384 plate washer, then 20 μl primary antibody solution added using a Wellmate. The primary antibody solution is a 1:500 dilution of Rabbit anti-phospho AKT Ser 473 (Cell signalling technologies catalogue number #3787) in PBS/T containing 1% marvel (dried milk powder) and incubated overnight at 4° C.
Plates are washed using a Tecan PW384 plate washer three times with Phosphate Buffered Saline+0.05% (v/v) Polysorbate20 and Proclin300 (Supelco). 20 μl of secondary antibody solution is then added to each well using a Wellmate and incubated for 1 hour at Room Temp. The secondary antibody solution is a 1:1000 dilution of Alexa Fluor 488 anti-Rabbit (Molecular Probes cat no A11008) diluted in Phosphate Buffered Saline+0.05% (v/v) Polysorbate20 containing 1% marvel. Plates are washed three times as before then […] added to each well and plates sealed with black plate sealer.
The plates are read on an Acumen reader as soon as possible. Using this system IC50 values can be generated and quality of plates determined by control wells. Reference compounds are run each time to monitor assay performance.

[2] = system: phospho AKT (ser473) in Jeko cells; test: Detection of phospho AKT (ser473) in Jeko cells; format: cell-based; conditions: Homo sapiens; Test (e); anti-IgM stimulated; approximate value; read-out: IC50 versus cellular phospho AKT (ser473) in Jeko cells
Protocol: (e) Protocol for Detection of Phospho AKT (ser473) in Jeko Cells
Compounds at ×10 final concentration in 10 μl of 1% (v/v) DMSO are added to the wells of a Greiner V-bottomed 96 well plate. Compounds are dosed in a 10-point concentration range from 1 μM top dose, 8 compounds are dosed on one plate. There are 8 DMSO positive control wells per plate which have been dosed with vehicle and anti-IgM, and 8 negative control wells which have been dosed with vehicle and assay buffer. Final vehicle concentration is 0.1% DMSO. A reference PI3Kδ selective compound is included in each run. Jeko B cells (human mantle cell lymphoma, ATCC CRL-3006) are seeded into the Greiner 96 well V-bottomed plates containing compounds. Cells are seeded at 100,000 cell/well in 70 μl of RPMI containing 1% glutamine.
Cell plates are incubated for 1 hour in a 37° C. incubator. After this compound pre-incubation time, anti-IgM (F(ab′)2 fragment goat anti-human IgM, Stratech 109-006-129) is added to the plates at ×5 final concentration in 20 μl of assay buffer (RPMI containing 1% glutamine). Final anti-IgM concentration is 0.06 μg/ml or an equivalent EC90 dose. Plates are incubated at 37° C. for 10 min, subsequently plates are immediately placed on ice and centrifuged at […] for 4 min. On ice, supernatants are carefully removed with a manual pipette and 40 μl lysis buffer added. […]

[3] = system: phosphoinositide (PI) 3-kinase; test: Comparison of activity of enantiomers (PI 3-kinase inhibitory activity); format: biochemical; conditions: (+) enantiomer of Example 1.03 compared with the other enantiomer
Source text: The synthesis of optically active forms may be carried out by standard techniques of organic chemistry well known in the art, for example by synthesis from optically active starting materials or by resolution of a racemic form. Similarly, the above-mentioned activity may be evaluated using the standard laboratory techniques.
For the avoidance of doubt, the chiral centre in question is the carbon atom at the 2-position of the central pyrrolidine ring that is linked to the chromenone bicyclic ring.

[4] = approximate value, read-out: IC50 versus PI3Kβ
[5] = human recombinant enzyme, ATP 8 μM, PIP2 80 μM, Table A, read-out: PI3Kβ inhibition, IC50
[6] = approximate value, read-out: IC50 versus PI3Kδ
[7] = human recombinant enzyme, Table A, read-out: PI3Kδ inhibition, IC50

PI3Kβ, sequence (P42338 whole entry): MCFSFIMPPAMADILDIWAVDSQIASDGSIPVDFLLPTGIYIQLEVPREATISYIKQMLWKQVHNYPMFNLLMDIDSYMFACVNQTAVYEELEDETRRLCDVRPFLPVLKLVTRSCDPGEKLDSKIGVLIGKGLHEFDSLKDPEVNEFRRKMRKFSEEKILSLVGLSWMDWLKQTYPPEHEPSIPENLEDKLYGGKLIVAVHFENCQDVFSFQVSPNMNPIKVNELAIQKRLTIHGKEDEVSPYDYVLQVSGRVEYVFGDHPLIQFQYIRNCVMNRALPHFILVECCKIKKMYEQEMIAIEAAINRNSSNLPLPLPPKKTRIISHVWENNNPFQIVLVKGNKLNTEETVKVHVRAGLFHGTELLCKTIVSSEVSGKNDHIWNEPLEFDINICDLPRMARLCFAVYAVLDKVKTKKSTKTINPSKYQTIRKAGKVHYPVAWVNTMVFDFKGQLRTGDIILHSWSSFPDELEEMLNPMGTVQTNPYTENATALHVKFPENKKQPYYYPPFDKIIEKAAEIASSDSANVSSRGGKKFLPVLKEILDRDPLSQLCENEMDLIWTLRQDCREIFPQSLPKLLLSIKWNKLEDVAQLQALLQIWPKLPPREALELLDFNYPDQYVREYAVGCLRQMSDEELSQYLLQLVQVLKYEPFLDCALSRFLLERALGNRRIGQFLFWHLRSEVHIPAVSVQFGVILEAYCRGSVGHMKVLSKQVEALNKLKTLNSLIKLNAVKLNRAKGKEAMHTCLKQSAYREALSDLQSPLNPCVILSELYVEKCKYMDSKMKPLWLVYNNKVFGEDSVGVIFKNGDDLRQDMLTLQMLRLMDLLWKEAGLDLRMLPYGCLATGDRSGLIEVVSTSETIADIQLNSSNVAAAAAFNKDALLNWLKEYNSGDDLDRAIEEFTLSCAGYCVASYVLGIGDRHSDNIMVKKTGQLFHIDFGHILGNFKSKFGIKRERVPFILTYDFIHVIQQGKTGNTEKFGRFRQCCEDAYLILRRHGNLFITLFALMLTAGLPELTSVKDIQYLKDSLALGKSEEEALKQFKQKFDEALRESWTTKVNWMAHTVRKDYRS
PI3Kβ, sequence (P27986 whole entry partner): as the sequence (P27986 whole entry partner) above

Row | IC50 (PI3Kβ; [4]) | IC50 (PI3Kβ; [5]) | IC50 (PI3Kδ; [6]) | IC50 (PI3Kδ; [7]) | IC50 [1] | activity relative to the other enantiomer [3] | SMILES | IC50 [2]
1 | ~7 nM | 7 nM | ~9 nM | 9 nM | ~1 nM |  | O=C(c1cc([C@H]2CCCN2c2cc(F)cc(F)c2)c2oc(N3CCOCC3)cc(=O)c2c1)N1CCC1 [Example 1.05, 6-(azetidine-1-carbonyl)-8-[(2R)-(1-(3,5-difluorophenyl)pyrrolidin-2-yl)]-2-morpholino-4H-chromen-4-one] | 
2 | ~198 nM |  | ~282 nM |  | ~27 nM | weaker activity | O=C(c1cc([C@@H]2CCCN2c2cc(F)cc(F)c2)c2oc(N3CCOCC3)cc(=O)c2c1)N1CCOCC1 [Example 1.03a, 8-[(2S)-1-(3,5-difluorophenyl)pyrrolidin-2-yl]-6-(morpholine-4-carbonyl)-2-morpholino-4H-chromen-4-one] | 
3 |  | 14 nM |  | 15 nM | ~6 nM |  | C[C@@H]1CN(c2cc(=O)c3cc(C(=O)N4CCOCC4)cc(C4CCCN4c4ccccc4)c3o2)CCO1 (stereo partly drawn) [Example 3.01, 2-((R)-2-methylmorpholino)-6-(morpholine-4-carbonyl)-8-(1-phenylpyrrolidin-2-yl)-4H-chromen-4-one] | 

Row | SMILES | IC50 (PI3Kβ; [4]) | IC50 (PI3Kβ; [5]) | IC50 (PI3Kδ; [6]) | IC50 (PI3Kδ; [7]) | IC50 [1] | activity relative to the other enantiomer [3] | IC50 [2]
4 | O=C(c1cc([C@H]2CCCN2c2cc(F)cc(F)c2)c2oc(N3CCOCC3)cc(=O)c2c1)N1CCOCC1 [Example 1.03b, 8-[(2R)-1-(3,5-difluorophenyl)pyrrolidin-2-yl]-6-(morpholine-4-carbonyl)-2-morpholino-chromen-4-one] | ~7 nM | 7 nM | ~9 nM | 9 nM | ~1 nM |  | ~7 nM
